From the supplement of paper PMC10307832

Columns and labels:
Experiment in all cases: relative viability (nuclei count vs DMSO), 5 days (fraction); higher = more cells survive
Zebularine + Luminespib = compound: O=c1ncccn1[C@@H]1O[C@H](CO)[C@@H](O)[C@H]1O [Zebularine] + CCNC(=O)c1noc(-c2cc(C(C)C)c(O)cc2O)c1-c1ccc(CN2CCOCC2)cc1 [Luminespib] (partner 0.01 µM)
Outline: (§1)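 Values are medians from duplicate plates. Each reflects relative viability, defined as the nuclei count of treated wells over that of vehicle wells. Lung cancer cell lines in 1536-well plates were pin-tool dosed one day after seeding with one drug alone or with a fixed anchor-drug dose plus five library-drug doses (not always all listed) in √10 steps, then fixed, stained and imaged at 4× after 5 days.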

BI-D1870 + Crizotinib = compound: CC(C)CCN1c2nc(Nc3cc(F)c(O)c(F)c3)ncc2N(C)C(=O)C1C [BI-D1870] + C[C@@H](Oc1cc(-c2cnn(C3CCNCC3)c2)cnc1N)c1c(Cl)ccc(F)c1Cl [Crizotinib] (partner 1 µM)
Outline: as §1

Zebularine + Dasatinib = compound: O=c1ncccn1[C@@H]1O[C@H](CO)[C@@H](O)[C@H]1O [Zebularine] + Cc1nc(Nc2ncc(C(=O)Nc3c(C)cccc3Cl)s2)cc(N2CCN(CCO)CC2)n1 [Dasatinib] (partner 0.075 µM)
Outline: as §1

Zebularine + Navitoclax = compound: O=c1ncccn1[C@@H]1O[C@H](CO)[C@@H](O)[C@H]1O [Zebularine] + CC1(C)CCC(c2ccc(Cl)cc2)=C(CN2CCN(c3ccc(C(=O)NS(=O)(=O)c4ccc(N[C@H](CCN5CCOCC5)CSc5ccccc5)c(S(=O)(=O)C(F)(F)F)c4)cc3)CC2)C1 [Navitoclax] (partner 0.5 µM)
Outline: as §1

| Cell Line | relative viability (Zebularine + Luminespib; first compound 1 µM) | relative viability (Zebularine + Luminespib; first compound 3.162 µM) | relative viability (Zebularine + Luminespib; first compound 10 µM) | relative viability (Zebularine + Luminespib; first compound 31.62 µM) | relative viability (Zebularine + Luminespib; first compound 100 µM) | relative viability (BI-D1870 + Crizotinib; first compound 0.04 µM) | relative viability (BI-D1870 + Crizotinib; first compound 0.1265 µM) | relative viability (BI-D1870 + Crizotinib; first compound 0.4 µM) | relative viability (BI-D1870 + Crizotinib; first compound 1.265 µM) | relative viability (BI-D1870 + Crizotinib; first compound 4 µM) | relative viability (Zebularine + Dasatinib; first compound 1 µM) | relative viability (Zebularine + Dasatinib; first compound 3.162 µM) | relative viability (Zebularine + Dasatinib; first compound 10 µM) | relative viability (Zebularine + Dasatinib; first compound 31.62 µM) | relative viability (Zebularine + Dasatinib; first compound 100 µM) | relative viability (Zebularine + Navitoclax; first compound 1 µM) | relative viability (Zebularine + Navitoclax; first compound 3.162 µM) | relative viability (Zebularine + Navitoclax; first compound 10 µM) | relative viability (Zebularine + Navitoclax; first compound 31.62 µM) | relative viability (Zebularine + Navitoclax; first compound 100 µM) |
| --- | --- | --- | --- | --- | --- | --- | --- | --- | --- | --- | --- | --- | --- | --- | --- | --- | --- | --- | --- | --- |
| LU99A | 0.221 | 0.269 | 0.166 | 0.188 | 0.146 | 0.692 | 0.539 | 0.552 | 0.547 | 0.508 | 0.722 | 0.523 | 0.44 | 0.325 | 0.116 | 0.827 | 0.635 | 0.596 | 0.408 | 0.166 |
| LXF-289 | 0.729 | 0.75 | 0.444 | 0.382 | 0.202 | 0.905 | 0.796 | 0.797 | 0.793 | 0.619 | 0.233 | 0.187 | 0.184 | 0.175 | 0.154 | 1.02 | 0.945 | 0.851 | 0.744 | 0.226 |
| NCI-H23 | 0.217 | 0.221 | 0.21 | 0.211 | 0.199 | 0.527 | 0.424 | 0.509 | 0.667 | 0.559 | 0.83 | 0.876 | 0.497 | 0.774 | 0.791 | 0.775 | 0.802 |  | 0.818 | 0.86 |
| NCI-H322M | 0.905 | 0.992 | 0.707 | 0.703 | 0.662 | 0.924 | 0.822 | 0.795 | 1.05 | 0.651 | 0.257 | 0.263 | 0.237 | 0.278 | 0.246 | 1.37 | 1.19 | 1.13 | 0.917 | 0.82 |
| NCI-H441 | 0.301 | 0.266 | 0.298 | 0.244 | 0.225 | 1.01 | 0.696 | 0.925 | 0.738 | 0.448 | 0.705 | 0.619 | 0.394 | 0.41 | 0.271 | 0.815 | 0.467 | 0.366 | 0.368 | 0.245 |
| NCI-H460 | 0.0314 | 0.0246 | 0.0322 | 0.0331 | 0.0289 | 1.2 | 0.76 | 0.84 | 0.926 | 0.14 | 0.725 | 0.527 | 0.326 | 0.304 | 0.0827 | 1.26 | 1.18 | 0.0689 | 0.413 | 0.0857 |
| NCI-H520 | 0.262 | 0.261 | 0.186 | 0.246 | 0.192 | 1.05 | 0.687 | 0.766 | 0.824 | 0.476 | 0.195 | 0.175 | 0.14 | 0.172 | 0.164 | 1.16 | 0.994 | 0.442 | 0.427 | 0.294 |
| NCI-H596 | 0.897 | 0.914 | 0.662 | 1.13 | 0.715 | 0.97 | 0.982 | 0.981 | 1.01 | 1.16 | 0.606 | 0.648 | 0.461 | 0.694 | 0.565 | 0.974 | 0.9 | 0.799 | 0.984 | 0.893 |
| NCI-H647 | 0.242 | 0.173 | 0.141 | 0.0957 | 0.0958 | 1.05 | 1.03 | 1.12 | 1.2 | 0.799 | 0.202 | 0.208 | 0.129 | 0.101 | 0.109 | 1.25 | 1.06 | 0.232 | 0.143 | 0.115 |
| NCI-H727 | 0.382 |  |  | 1.01 | 0.272 | 0.986 | 0.672 | 0.938 | 0.922 | 0.853 | 0.383 |  |  | 0.349 | 0.356 | 0.492 | 0.451 | 0.474 | 0.442 | 0.411 |
| NCI-H838 | 0.299 | 0.312 | 0.276 | 0.243 | 0.228 | 0.902 | 0.715 | 0.926 | 0.949 | 0.932 | 0.318 | 0.238 | 0.239 | 0.268 | 0.278 | 1.2 | 1.21 | 0.561 | 0.815 | 0.403 |
| NCI-H1355 | 0.93 | 0.654 | 0.595 | 0.452 | 0.29 | 1.12 | 0.985 | 1.1 | 1.08 | 1.11 | 0.757 | 0.746 | 0.525 | 0.617 | 0.458 | 0.955 | 0.894 | 0.898 | 0.456 | 0.306 |
| NCI-H1437 | 1.22 | 1.23 | 0.956 | 1.16 | 0.59 | 1.04 | 0.811 | 0.873 | 0.794 | 0.677 | 0.521 | 0.462 | 0.333 | 0.531 | 0.459 | 1.23 | 1.16 |  | 0.99 | 0.364 |
| NCI-H1650 | 0.188 | 0.222 | 0.176 | 0.234 | 0.225 | 0.984 | 0.905 | 0.936 | 0.777 | 0.801 | 0.384 | 0.366 | 0.324 | 0.342 | 0.312 | 1.06 | 1.06 |  | 1.21 | 0.704 |
| NCI-H1651 | 0.986 | 0.831 | 0.688 | 0.738 | 0.519 | 0.91 | 0.821 | 0.821 | 0.939 | 0.872 | 0.399 | 0.359 | 0.343 | 0.53 | 0.247 | 1.22 | 1.03 |  | 0.971 | 0.506 |
| NCI-H1666 | 1.01 | 0.932 | 0.966 | 1.01 | 0.751 | 0.932 | 0.813 | 1.1 | 1.04 | 0.803 | 0.828 | 0.817 | 0.714 | 0.993 | 0.689 | 0.98 | 1.05 | 0.857 | 1.08 | 0.575 |
